The record followed here is BindingDB's records for doi:10.1021/jm950922q (University of North Carolina at Chapel Hill, 1996).

Molecules are shown by their SMILES.

For this assay, the target named is HIV-RT (HIV reverse transcriptase). Briefly: Inhibitory activity against HIV-RT.
Usually IC50 stands for the point on the concentration scale where inhibition reaches its midpoint. Consider `C=C(C)[C@@H]1CC[C@]2(C(=O)O)CC[C@]3(C)[C@H](CC[C@@H]4[C@@]5(C)CC[C@H](O)C(C)(C)[C@@H]5CC[C@]43C)[C@@H]12`, for which the concentration for half-maximal inhibition (IC50) was above 219 µM.

As to `CC(C)[C@@H]1CC[C@]2(C(=O)O)CC[C@]3(C)[C@H](CC[C@@H]4[C@@]5(C)CC[C@H](OC(=O)CC(C)(C)C(=O)O)C(C)(C)[C@@H]5CC[C@]43C)[C@@H]12` [2,2-Dimethyl-succinic acid 4-((1S,3aS,5aR,5bR,7aR,9S,11aR,11bR,13aR,13bR)-3a-carboxy-1-isopropyl-5a,5b,8,8,11a-pentamethyl-icosahydro-cyclopenta[a]chrysen-9-yl) ester], the IC50 was above 171 µM.

The compound `C=C(C)[C@@H]1CC[C@]2(C(=O)O)CC[C@]3(C)[C@H](CC[C@@H]4[C@@]5(C)CC[C@H](OC(=O)CC(C)(C)CC(=O)O)C(C)(C)[C@@H]5CC[C@]43C)[C@@H]12` [3,3-Dimethyl-pentanedioic acid mono-((1R,3aS,5aR,5bR,7aR,9S,11aR,11bR,13aR,13bR)-3a-carboxy-1-isopropenyl-5a,5b,8,8,11a-pentamethyl-icosahydro-cyclopenta[a]chrysen-9-yl) ester] came in with an IC50 above 167 µM.

As for `CC(C)[C@@H]1CC[C@]2(C(=O)O)CC[C@]3(C)[C@H](CC[C@@H]4[C@@]5(C)CC[C@H](OC(=O)CC(C)(C)CC(=O)O)C(C)(C)[C@@H]5CC[C@]43C)[C@@H]12` [3,3-Dimethyl-pentanedioic acid mono-((1S,3aS,5aR,5bR,7aR,9S,11aR,11bR,13aR,13bR)-3a-carboxy-1-isopropyl-5a,5b,8,8,11a-pentamethyl-icosahydro-cyclopenta[a]chrysen-9-yl) ester], the 50% inhibitory concentration (IC50) is above 167 µM.

The compound `C=C(C)[C@@H]1CC[C@]2(C(=O)O)CC[C@]3(C)[C@H](CC[C@@H]4[C@@]5(C)CC[C@H](OC(=O)COCC(=O)O)C(C)(C)[C@@H]5CC[C@]43C)[C@@H]12` [(1R,3aS,5aR,5bR,7aR,9S,11aR,11bR,13aR,13bR)-9-(2-Carboxymethoxy-acetoxy)-1-isopropenyl-5a,5b,8,8,11a-pentamethyl-icosahydro-cyclopenta[a]chrysene-3a-carboxylic acid] returned an IC50 above 175 µM.

Compound `C=C(C)[C@@H]1CC[C@]2(C(=O)O)CC[C@]3(C)[C@H](CC[C@@H]4[C@@]5(C)CC[C@H](OC(=O)C(C)(C)CC(=O)O)C(C)(C)[C@@H]5CC[C@]43C)[C@@H]12` [(1R,3aS,5aR,5bR,7aR,9S,11aR,11bR,13aR,13bR)-9-(3-carboxy-2,2-dimethylpropanoyloxy)-5a,5b,8,8,11a-pentamethyl-1-(prop-1-en-2-yl)icosahydro-1H-cyclopenta[a]chrysene-3a-carboxylic acid] returned an IC50 above 171 µM.

`CC(C)[C@@H]1CC[C@]2(C(=O)O)CC[C@]3(C)[C@H](CC[C@@H]4[C@@]5(C)CC[C@H](OC(=O)COCC(=O)O)C(C)(C)[C@@H]5CC[C@]43C)[C@@H]12` [(1S,3aS,5aR,5bR,7aR,9S,11aR,11bR,13aR,13bR)-9-(2-Carboxymethoxy-acetoxy)-1-isopropyl-5a,5b,8,8,11a-pentamethyl-icosahydro-cyclopenta[a]chrysene-3a-carboxylic acid]: the half-maximal inhibitory concentration (IC50) was above 174 µM.

Compound `CC(C)[C@@H]1CC[C@]2(C(=O)O)CC[C@]3(C)[C@H](CC[C@@H]4[C@@]5(C)CC[C@H](O)C(C)(C)[C@@H]5CC[C@]43C)[C@@H]12` [Dihydrobetulinic acid] came in with an IC50 above 218 µM.
